One test concerns insulin. Description: Plasma insulin (ELISA) and HOMA insulin resistance index after acute oral gavage. Type of test: in vivo. As to conditions: adult male Wistar rats. The protocol:
(§1) The protocol was approved by the Ethics Committee for Animal Experiments of the University of Malaga.
(§2) D-Pinitol (3-0-methyl-D-chiro-inositol) was generously provided by EURONUTRA SL (https://www.euronutra.com/, Malaga, Spain), in the form of crystalline fine powder (lot: PPN-M0201). For acute treatments, D-Pinitol was dissolved in water to be administered by gavage (orally) at different concentrations (100 mg/Kg and 500 mg/Kg), drug was administered at a volume of 1 ml/kg.
After 18 hours of fasting, D-Pinitol dissolved in water was administered acutely by gavage (100 mg/kg in a first study, and 500 mg/kg in a subsequent study). After administration, the animals were sacrificed in groups at different times (being time 0 the administration of D-Pinitol). For the first study (100 mg/kg), groups of animals were sacrificed at times: 10, 20, 30, 60, 120, 240 and 360 minutes after administration; for the second study (500 mg/kg), animals were sacrificed at times: 60, 120 and 240 minutes after administration. As a control group, a group was administered only with water (by gavage).
Animals were anesthetized with sodium pentobarbital (50 mg/Kg, i.p.), blood, brain and liver samples were collected. Blood was centrifuged (2100 g for 8 min, 4° C.) and the plasma kept for further analysis. Liver and brain samples were flash-frozen in liquid N2, then stored at −80° C. until further analysis.
The plasma levels of insulin and ghrelin were determined with an enzyme-linked immunosorbent assay (ELISA) method using commercial kits: EMD Millipore Corporation (Billerica, Mass., USA) Cat. #EZRMI-13K and Cat. #EZRGRT-91K, respectively. Glucagon levels in plasma was determined with a Glucagon Enzyme Immunoassay (EIA) Kit: Cat. #RAB0202 Sigma-Aldrich (Saint Louis, Mo., USA). All serum samples were assayed in duplicate within one assay, and results were expressed in terms of the particular standard hormone.
For orientation: An ELISA detects its analyte on a solid surface through an enzyme-linked reagent.

Another test has as its system Glucagon. The test is described as follows: Plasma glucagon (EIA) after acute oral gavage. The format is in vivo. As to conditions: oral 500 mg/kg, adult male Wistar rats, FIG. 3E. The protocol:
as §1, §2
After 18 hours of fasting, D-Pinitol dissolved in water was administered acutely by gavage (100 mg/kg in a first study, and 500 mg/kg in a subsequent study). After administration, the animals were sacrificed in groups at different times (being time 0 the administration of D-Pinitol). For the first study (100 mg/kg), groups of animals were sacrificed at times: 10, 20, 30, 60, 120, 240 and 360 minutes after administration; for the second study (500 mg/kg), animals were sacrificed at times: 60, 120 and 240 minutes after administration. […]
The plasma levels of insulin and ghrelin were determined with an enzyme-linked immunosorbent assay (ELISA) method using commercial kits: EMD Millipore Corporation (Billerica, Mass., USA) Cat. #EZRMI-13K and Cat. #EZRGRT-91K, respectively. Glucagon levels in plasma was determined with a Glucagon Enzyme Immunoassay (EIA) Kit: Cat. #RAB0202 Sigma-Aldrich (Saint Louis, Mo., USA). […]

For test [1], the system named is glycogen synthase kinase-3β (GSK-3β). Description: Hippocampal GSK-3β phosphorylation and total level (western blot) after 10 days of oral administration. To be noted: oral 100 mg/Kg for 10 days, hippocampus. The format is in vivo, Wistar rats. The protocol:
(§3) Animal experimental procedures were carried out in accordance with the European Communities directive 2010/63/EU and Spanish legislation (Real Decreto 53/2013). The protocol was approved by the Research and approved by Ethics Committee for Animal Experiments of the University of Malaga, Spain. In accordance with the ARRIVE guidelines, all efforts were made to minimize animal suffering and to reduce the number of animals used per experimental group. Chronic drinking experiments on Wistar rats were performed on 20 male rats. All adult rats, ageing 2 months (≈300 g of body weight), were provided by Charles River Laboratories (Barcelona, Spain). The animals were housed individually under a standard 12 h light-dark cycle in a room with temperature and humidity control. Water and rat chow pellets were provided ad libitum throughout the course of the present study.
Caromax®-D-Pinitol (3-O-methyl-d-chiro-inositol, DPIN, 98% purity) and Caromax®-D-Chiro-inositol (cis-1,2,3-trans-3,5,6-cyclohexanehexol, DCI) were provided by Euronutra SL (Málaga, Spain). They were dissolved in water to orally daily administration by drinking and/or gavage at dose of 100 mg/Kg of body weight (BW) in a 1 ml/kg of BW volume to Zucker and Wistar rats for 4 weeks (28 days) and 10 days, respectively (FIG. 1). During the drinking treatments, the concentration of inositols in the water were updated considering the daily increase of BW of the rats and the possible loss of water by evaporation.
Brain extract. Frozen brain samples (17 mg per sample) were homogenized in 1 mL of cold RIPA lysis buffer (50 mM Tris-HCl pH 7.4, 150 mM NaCl, 0.5% NaDOC, 1 mM EDTA, 1% Triton, 0.1% SDS, 1 mM Na3VO4, 1 mM NaF) supplemented with a protease cocktail (Hoffmann-Roche). The suspension was incubated for 2 hours at 4° C., followed by centrifugation at 12,000 rpm for 15 minutes at 4° C. The supernatant was transferred to a new clean centrifuge tube, and Bradford colorimetric method was used to determine the concentration of the total protein. The protein extracts were diluted 1:1 in loading buffer (DTT 2X) and heated for 5 minutes at 99° C. before being subjected to electrophoresis.
Western Blot Analysis. The tissue protein (10-15 μg) was subjected to electrophoresis on 4-12% Criterion XT Precast Bis-Tris gels (Bio-Rad, USA) for 30 minutes at 80V and 2 h at 150V. Proteins were transferred onto a 0.2 μm nitrocellulose membrane (Bio-Rad, USA) for 1 h at 80V by wet transfer equipment. The membrane was washed twice for 5 min in TBST (10 mM Tris-HCl, 150 mM NaCl, 0.1% Tween 20, pH 7.6) and blocked with 2% Bovine Serum Albumin-Tris Buffered Saline Tween 20 (BSA-TBST) for one hour at room temperature on a shaker platform. Subsequently, the membrane was incubated with respective primary antibodies overnight at 4° C. diluted in 2% BSA-TBST (Table 2 for additional information). The following day, the membrane was washed three times for 5 min with TBST. An appropriate HRP conjugated rabbit/mouse secondary antibody (Promega) was diluted 1:10000 in 2% BSA-TST and incubated with the membrane for 1 h shaking at room temperature. Finally, the membrane was washed as above and exposed to chemiluminescent reagent (Santa Cruz, Biotechnology Inc.) for 5 min. Stripping/reproving steps were used when necessary. Respective membrane bound protein was then visualized by Chemiluminescence (ChemiDoc Imaging System, Bio-Rad). Bands were quantified by densitometric analysis using ImageJ software (Rasband, WS, ImageJ, US National Institutes of Health, Bethesda, Md., USA). Normalization was performed using a reference protein of the same membrane, the α-Adaptin. The results were expressed as the protein/α-Adaptin ratio or phosphorylated/total protein ratio and normalized to the control group (Y axis represents ‘fold mean of the control values’).
All data are expressed as mean±SEM. Statistical analysis was undertaken for studies where each group size was of, at least, n=5. […]
(In western blotting, separated proteins are transferred to a membrane and probed.)

Test [2] has as its system AMP-activated Protein Kinase (AMPK). Description: Hippocampal AMPK (western blot) after 10 days of oral drinking. To be noted: oral by drinking 100 mg/Kg for 10 days, hippocampus, FIG. 10. Type of test: in vivo, Wistar rats. The protocol:
as §3, with “study. […]” for “study.”
Western Blot Analysis. […] Bands were quantified by densitometric analysis using ImageJ software (Rasband, WS, ImageJ, US National Institutes of Health, Bethesda, Md., USA). […] The results were expressed as the protein/α-Adaptin ratio or phosphorylated/total protein ratio and normalized to the control group (Y axis represents ‘fold mean of the control values’).
All data are expressed as mean±SEM. […]

As for `COC1[C@@H](O)[C@@H](O)C(O)[C@H](O)[C@H]1O` (stereo partly drawn) [DPIN, (1S,2S,4S,5R)-6-methoxycyclohexane-1,2,3,4,5-pentol], the “insulin release into the blood circulation” value in the test with insulin (oral 100 mg/kg, FIG. 2B) is “decreased”; in the test on insulin (oral 500 mg/kg, FIG. 3B), “decreased”. The “insulin resistance measured by the HOMA index” value with insulin (oral 100 mg/kg, FIG. 2C) is “reduction”; in the test with insulin (oral 500 mg/kg, FIG. 3D), “reduction”. The glucagon secretion entry in the test with Glucagon was “Increase”. The “GSK-3β serine-9 phosphorylation” value in test [1] (FIG. 9A.1) was “no effect”. The “GSK-3β tyrosine-216 phosphorylation” value in test [1] (FIG. 9A.2) is reported as “no effect”. In addition, the “GSK-3β kinase activity (Ser9/Tyr216)” value in test [1] (FIG. 9A.3) is recorded as “neither enhance nor inhibition”. Moreover, the “kinase activation and total expression of AMPK” value in test [2] is given as “No other changes”.

The record behind these values is US20220313620A1, “COMPOSITION FOR PREVENTING AND TREATING TAUOPATHIES” (SERVICIO ANDALUZ DE SALUD, priority 2019, published 2022).
